Results from PubChem BioAssay AID192 (DTP/NCI, 2004).
Values joined by “and” are separate entries in the source; they are usually repeats but may differ in a detail not shown here. Equal values may be shown once. Toxic doses and inconclusive results are not listed. The calls were made as follows: active = survival T/C of 150% or more; inactive = T/C below 125% in these data.

Test system: BDF1 mice, B16 melanoma ip, median survival T/C
Assay: NCI In Vivo Anticancer Drug Screen. Data for tumor model B16 Melanoma (intraperitoneal) in B6D2F1 (BDF1) mice
Conditions: endpoint: median survival time, higher = longer survival
In short: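 Compounds were tested in mice carrying transplantable tumors. Survival or tumor size was recorded, and each value is the treated-group measurement (T) divided by that of the vehicle-treated control group (C).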

[1] = dose: 100.0 mg/kg/injection, schedule: Q01DX009 (ip), vehicle: Klucel (hydroxypropylcellulose) (HPC)
[2] = dose: 12.5 mg/kg/injection, schedule: Q01DX009 (ip), vehicle: saline
[3] = dose: 6.25 mg/kg/injection, schedule: Q01DX009 (ip), vehicle: saline with Tween-80
[4] = dose: 12.5 mg/kg/injection, schedule: Q01DX009 (ip), vehicle: saline with Tween-80
[5] = dose: 25.0 mg/kg/injection, schedule: Q01DX009 (ip), vehicle: saline with Tween-80
[6] = dose: 25.0 mg/kg/injection, schedule: Q01DX009 (ip), vehicle: saline

Measured: T/C

CCC1(O)CC2CN(CCc3c([nH]c4ccccc34)C(C(=O)OC)(c3cc4c(cc3OC)N(C)C3C(O)(C(N)=O)C(O)C5(CC)C=CCN6CCC43C65)C2)C1 (centres undefined) (tested in a mixture with another compound)
109 % of control and 236 % of control: dose: 0.5 mg/kg/injection, schedule: Q04DX003 (ip), vehicle: saline
inactive: dose: 0.12 mg/kg/injection, schedule: Q04DX003 (ip), vehicle: water 115 % of control | dose: 0.25 mg/kg/injection, schedule: Q04DX003 (ip), vehicle: saline 108 % of control | dose: 0.25 mg/kg/injection, schedule: Q04DX003 (ip), vehicle: water 115 % of control | dose: 0.5 mg/kg/injection, schedule: Q04DX003 (ip), vehicle: water 118 % of control | dose: 0.6 mg/kg/injection, schedule: Q04DX003 (ip), vehicle: saline 119 % of control | dose: 1.04 mg/kg/injection, schedule: Q01DX001 (ip), vehicle: water 122 % of control | dose: 37.5 micrograms/kg/injection, schedule: Q01DX009 (ip), vehicle: water 98 % of control | dose: 75.0 micrograms/kg/injection, schedule: Q01DX009 (ip), vehicle: water 107 % of control | dose: 130.0 micrograms/kg/injection, schedule: Q01DX009 (ip), vehicle: water 120 % of control | dose: 150.0 micrograms/kg/injection, schedule: Q01DX009 (ip), vehicle: water 111 % of control | dose: 300.0 micrograms/kg/injection, schedule: Q01DX009 (ip), vehicle: water 123 % of control
active: dose: 0.13 mg/kg/injection, schedule: Q01DX009 (ip), vehicle: water 162 % of control | dose: 0.18 mg/kg/injection, schedule: Q04DX003 (ip), vehicle: saline 159 % of control | dose: 0.22 mg/kg/injection, schedule: Q01DX009 (ip), vehicle: water 183 % of control | dose: 0.3 mg/kg/injection, schedule: Q04DX003 (ip), vehicle: saline 177 % of control | dose: 0.36 mg/kg/injection, schedule: Q01DX009 (ip), vehicle: water 151 % of control and 184 % of control | dose: 0.39 mg/kg/injection, schedule: Q04DX003 (ip), vehicle: saline 176 % of control | dose: 0.52 mg/kg/injection, schedule: Q04DX003 (ip), vehicle: water 183 % of control | dose: 0.6 mg/kg/injection, schedule: Q01DX009 (ip), vehicle: water 241 % of control | dose: 0.65 mg/kg/injection, schedule: Q04DX003 (ip), vehicle: saline 172 % of control | dose: 0.86 mg/kg/injection, schedule: Q04DX003 (ip), vehicle: water 166 % of control and 202 % of control | dose: 1.0 mg/kg/injection, schedule: Q04DX003 (ip), vehicle: saline 168 % of control | dose: 1.08 mg/kg/injection, schedule: Q04DX003 (ip), vehicle: saline 206 % of control | dose: 1.44 mg/kg/injection, schedule: Q04DX003 (ip), vehicle: water 151 % of control and 275 % of control | dose: 1.73 mg/kg/injection, schedule: Q01DX001 (ip), vehicle: water 165 % of control | dose: 1.8 mg/kg/injection, schedule: Q04DX003 (ip), vehicle: saline 241 % of control | dose: 2.0 mg/kg/injection, schedule: Q04DX003 (ip), vehicle: saline 180 % of control | dose: 2.9 mg/kg/injection, schedule: Q01DX001 (ip), vehicle: water 166 % of control | dose: 4.0 mg/kg/injection, schedule: Q04DX003 (ip), vehicle: saline 181 % of control | dose: 4.8 mg/kg/injection, schedule: Q01DX001 (ip), vehicle: water 152 % of control and 194 % of control | dose: 8.0 mg/kg/injection, schedule: Q01DX001 (ip), vehicle: water 211 % of control | dose: 60.0 micrograms/kg/injection, schedule: Q01DX009 (ip), vehicle: saline 151 % of control | dose: 100.0 micrograms/kg/injection, schedule: Q01DX009 (ip), vehicle: saline 152 % of control | dose: 170.0 micrograms/kg/injection, schedule: Q01DX009 (ip), vehicle: saline 226 % of control | dose: 216.0 micrograms/kg/injection, schedule: Q01DX009 (ip), vehicle: saline 173 % of control | dose: 216.0 micrograms/kg/injection, schedule: Q01DX009 (ip), vehicle: water 150 % of control and 165 % of control | dose: 360.0 micrograms/kg/injection, schedule: Q01DX009 (ip), vehicle: saline 183 % of control | dose: 360.0 micrograms/kg/injection, schedule: Q01DX009 (ip), vehicle: water 155 % of control | dose: 389.0 micrograms/kg/injection, schedule: Q04DX003 (ip), vehicle: saline 187 % of control and 207 % of control | dose: 600.0 micrograms/kg/injection, schedule: Q01DX009 (ip), vehicle: saline 191 % of control | dose: 600.0 micrograms/kg/injection, schedule: Q01DX009 (ip), vehicle: water 155 % of control and 175 % of control | dose: 648.0 micrograms/kg/injection, schedule: Q04DX003 (ip), vehicle: saline 179 % of control and 258 % of control | dose: 1080.0 micrograms/kg/injection, schedule: Q04DX003 (ip), vehicle: saline 161 % of control and 214 % of control and 225 % of control | dose: 1800.0 micrograms/kg/injection, schedule: Q04DX003 (ip), vehicle: saline 195 % of control and 248 % of control and 303 % of control | dose: 3000.0 micrograms/kg/injection, schedule: Q04DX003 (ip), vehicle: saline 152 % of control and 243 % of control and 308 % of control

Cc1ccc(C)n1-c1ccccc1C(=O)O
inactive: [1] 106 % of control | dose: 200.0 mg/kg/injection, schedule: Q01DX009 (ip), vehicle: Klucel (hydroxypropylcellulose) (HPC) 96 % of control | dose: 400.0 mg/kg/injection, schedule: Q01DX009 (ip), vehicle: Klucel (hydroxypropylcellulose) (HPC) 90 % of control

CN1CCN(CCC=C2c3ccccc3Sc3ccc(S(=O)(=O)N(C)C)cc32)CC1
inactive: dose: 0.78 mg/kg/injection, schedule: Q01DX009 (ip), vehicle: saline 102 % of control | dose: 1.56 mg/kg/injection, schedule: Q01DX009 (ip), vehicle: saline 100 % of control | dose: 3.12 mg/kg/injection, schedule: Q01DX009 (ip), vehicle: saline 86 % of control | [2] 89 % of control

NCCN.[Ni+2].[O-]c1ccccc1[O-].[O-]c1ccccc1[O-]
inactive: dose: 1.56 mg/kg/injection, schedule: Q01DX009 (ip), vehicle: saline with Tween-80 100 % of control | dose: 3.13 mg/kg/injection, schedule: Q01DX009 (ip), vehicle: saline with Tween-80 97 % of control | [3] 87 % of control | [4] 87 % of control

CC(=O)ON=C1C=CC(=C(C#N)c2ccccc2)C=C1
inactive: [5] 86 % of control | dose: 50.0 mg/kg/injection, schedule: Q01DX009 (ip), vehicle: saline with Tween-80 86 % of control | dose: 100.0 mg/kg/injection, schedule: Q01DX009 (ip), vehicle: saline with Tween-80 92 % of control

Cc1ccc(S(=O)(=O)OC2CCN(C)CC2)cc1
inactive: dose: 3.0 mg/kg/injection, schedule: Q04DX003 (ip), vehicle: Klucel (hydroxypropylcellulose) (HPC) 90 % of control | dose: 6.0 mg/kg/injection, schedule: Q04DX003 (ip), vehicle: Klucel (hydroxypropylcellulose) (HPC) 86 % of control | dose: 6.25 mg/kg/injection, schedule: Q01DX009 (ip), vehicle: saline 100 % of control | dose: 6.25 mg/kg/injection, schedule: Q04DX003 (ip), vehicle: saline 94 % of control | [2] 100 % of control | dose: 12.5 mg/kg/injection, schedule: Q04DX003 (ip), vehicle: saline 97 % of control | [6] 100 % of control | dose: 25.0 mg/kg/injection, schedule: Q04DX003 (ip), vehicle: saline 94 % of control

C#CCN(C)Cc1ccccc1
inactive: [2] 97 % of control | [6] 97 % of control | dose: 50.0 mg/kg/injection, schedule: Q01DX009 (ip), vehicle: saline 100 % of control

N=C(N)SCCCN
inactive: dose: 100.0 mg/kg/injection, schedule: Q04DX003 (ip), vehicle: saline 109 % of control | dose: 200.0 mg/kg/injection, schedule: Q01DX009 (ip), vehicle: saline 93 % of control | dose: 200.0 mg/kg/injection, schedule: Q04DX003 (ip), vehicle: saline 104 % of control

CC1CCCN(C)C1 (centres undefined)
inactive: dose: 50.0 mg/kg/injection, schedule: Q01DX009 (ip), vehicle: Klucel (hydroxypropylcellulose) (HPC) 117 % of control | [1] 120 % of control

CNc1ccc(O)cc1
inactive: [3] 92 % of control | [4] 92 % of control | [5] 95 % of control
